Entries after “also recorded” stand apart in the source; their conditions may differ.
What was measured:
BTK E41K = target: T1, BTK E41K (Homo sapiens, UniProt Q06187, E41K); assay: BTK activity assay, [33P]-ATP incorporation into poly-EY; type: biochemical; conditions: ATP at Km concentration
T1 construct: against full-length wild type (WT) and mutant human BTK enzymes
Experimental: (§1) The reaction mixtures each contained polyhistidine-tagged BTK enzyme, poly-EY and BTK inhibitor at the appropriate concentrations. The reaction mixtures are incubated for 20 minutes at room temperature after which [[γ-^33P]-ATP (radiochemical concentration 10 μCi/μL) at 10 μM or the ATP Km concentration for each enzyme is added. After 2 hours of incubation at room temperature, the radiolabeled peptide substrate is captured, and incorporated radioactivity is quantified.

BTK P190K = target: T2, BTK P190K (Homo sapiens, UniProt Q06187, P190K); assay: as above; type: biochemical; conditions: ATP at Km concentration
T2 construct: against full-length wild type (WT) and mutant human BTK enzymes
Experimental: as §1

BTK = target: T3, BTK (Homo sapiens, UniProt Q06187); assay: BTK Y223 autophosphorylation in Ramos RA1 cells; type: cell-based; conditions: anti-human IgM stimulation
T3 construct: host or cells: Ramos RA1
Experimental: (§2) Ramos RA1 cells, obtained from ATCC (CRL-1596), are grown in RPMI 1640+10% fetal bovine serum (FBS) at 37° C. in a CO2 incubator. […] Nine hundred μL of cell/well are added to 24 well plates and 100 uL of 10× stocks of inhibitor are added. The 10× compound of Formula I stocks are prepared in 1% DMSO, by doing a 1:3 dilution series with final concentrations in the wells ranging between 900 nM to 0.41 nM. […] All samples are tested in triplicate. After 2 hours (starvation and dosing) sodium orthovanadate is added to a final concentration of 200 μM and incubated for 30 more min. Cells are then stimulated with 4 uL of goat F(ab′)2 anti-human IgM (Jackson ImmunoResearch #109-006-129) for 5 min at room temperature, spun down, resuspended in 100 uL of […]™ M (Sigma #C2978) containing 5× Halt phosphatase and protease inhibitor cocktails (Pierce #78442), and stored at −80° C. Lysates are quantified by BCA (Pierce #23225) and analyzed by Simple Western (Protein Simple) with the following antibodies: anti-phospho-BTK (Y223) (Cell Signaling Technologies (CST) #5082), anti-BTK (CST #8547), anti-phospho-PLCγ2 (Y1217) (CST 3871), anti-PLCγ2 (CST 3872), and anti-GAPDH (GAPDH refers to glyceraldehyde 3-phosphate dehydrogenase) (Novus #MAB5718-SP). […] Results are analyzed with Compass software (Protein Simple), and IC50 values are calculated on GraphPad Prism 7.04 software.

PLCγ2 = PLCγ2 Y1217 phosphorylation in Ramos RA1 cells; type: cell-based; conditions: anti-human IgM stimulation
Experimental: as §2

TMD8 cells = assay: BTK-dependent proliferation of TMD8 diffuse large B-cell lymphoma cell line; type: cell-based; conditions: Homo sapiens, from AUC of real-time confluence curves, 0.1 to 1,000 nM
Experimental: The TMD8 cells are maintained in RPMI 1640 (Gibco Catalog #31870-025) with 10% Fetal Calf Serum (FCS), 1% GLUTAMAX™, Non-Essential Amino-Acids and 1 mM sodium pyruvate. The cells are harvested by centrifugation (5 min, 1200 rpm) prior to reaching a concentration of 3×10^6 cells/mL. The medium is removed and cell pellet resuspended in fresh medium before counting with a Cellometer (Nexcelom). TMD8 cells are seeded at 5×10^4 cells/mL in 20 mL of culture medium in a T75 culture flask and held at 37° C. with 5% CO2.
The anti-proliferation activity of the compound of Formula I with TMD8 cells is accessed by the addition of increasing concentrations of inhibitor from 0.1 to 1,000 nM. A dose-dependent inhibition is observed by real-time assessment of TMD8 confluence. Individual curves for each compound of Formula I concentration are represented in the FIG. 12A.

[1] = Aqueous solubility at different pH values; type: physicochemical
[2] = Kinetic solubility in FaSSGF, FaSSIF and FeSSIF media; type: physicochemical; conditions: kinetic from dmso stock
Experimental: The solubility of the compound of Formula I is also tested under conditions that simulate gut fluids (Fasted State Simulated Intestinal Fluid [FaSSIF], Fed State Simulated Intestinal Fluid [FeSSIF], and Fasted State Simulated Gastric Fluid [FaSSGF]) as shown in Table 9.

[3] = Solubility screening in lipid vehicles; type: physicochemical
Experimental: The solubility of the compound of Formula I in lipid vehicles is also examined. The compound of Formula I Form A is added into a clear, 20 mL glass vials followed by the corresponding excipients, e.g., MIGLYOL® 812 (saturated coconut and palmkernel oil-derived caprylic and capric fatty acids and glycerin, e.g., C8 and C10 triglycerides), CAPMUL® MCM EP (glyceryl monocaprylocaprate type I (EP)), PECEOL™ (glycerol monooleates (type 40) EP, glyceryl monooleate (type 40) NF), LABRAFIL® M2125CS (linoleoyl polyoxyl-6 glycerides), LAUROGLYCOL™ FCC (propylene glycol monolaurate (type I)), Span® 80 (sorbitane monooleate), PHOSAL® 53 MCT (lecithin in caprylic/capric triglycerides, alcohol, glyceryl stearate, oleic acid, and ascorbyl palmitate), or capmul PG-8 (propylene glycol monocaprylate). The samples are then homogenized with a handheld homogenizer for 10 minutes until the compound of Formula I is visibly dissolved. […] A set of matching control formulations are also prepared.

[4] = FaSSGF (Fasted State Simulated Gastric Fluid), fassgf or other biorelevant, pH 1.6 FaSSGF
[5] = FaSSIF (Fasted State Simulated Intestinal Fluid), pH 6.5 FaSSIF
[6] = FeSSIF (Fed State Simulated Intestinal Fluid), pH 6.5 FeSSIF

T1 sequence (Q06187 whole entry E41K): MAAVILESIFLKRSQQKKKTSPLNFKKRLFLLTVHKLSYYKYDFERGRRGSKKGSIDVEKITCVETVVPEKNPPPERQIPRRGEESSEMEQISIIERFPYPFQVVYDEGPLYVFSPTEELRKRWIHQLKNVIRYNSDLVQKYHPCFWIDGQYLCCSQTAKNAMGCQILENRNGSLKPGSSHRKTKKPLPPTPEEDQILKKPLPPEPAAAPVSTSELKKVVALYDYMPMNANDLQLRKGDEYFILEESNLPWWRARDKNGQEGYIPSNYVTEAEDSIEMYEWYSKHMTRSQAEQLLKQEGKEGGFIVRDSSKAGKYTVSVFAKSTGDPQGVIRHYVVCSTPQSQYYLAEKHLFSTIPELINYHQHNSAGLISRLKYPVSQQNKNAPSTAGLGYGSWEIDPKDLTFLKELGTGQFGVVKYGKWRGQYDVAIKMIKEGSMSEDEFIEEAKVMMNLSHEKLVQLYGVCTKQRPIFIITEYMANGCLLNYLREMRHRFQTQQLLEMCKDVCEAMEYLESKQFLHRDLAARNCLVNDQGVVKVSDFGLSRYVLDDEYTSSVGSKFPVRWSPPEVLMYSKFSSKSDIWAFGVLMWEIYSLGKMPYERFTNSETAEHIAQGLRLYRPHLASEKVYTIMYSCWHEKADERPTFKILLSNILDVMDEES
T3 sequence (Q06187 whole entry): as the sequence (Q06187 whole entry E41K) above, with K41E counted along it
T2 sequence (Q06187 whole entry P190K): as the sequence (Q06187 whole entry E41K) above, with K41E, P190K counted along it

SMILES: COc1ccc(F)cc1C(=O)NCc1ccc(-c2nn([C@@H](C)C(F)(F)F)c(N)c2C(N)=O)cc1 [compound of Formula I, (S)-5-amino-3-(4-((5-fluoro-2-methoxybenzamido)methyl)phenyl)-1-(1,1,1-trifluoropropan-2-yl)-1H-pyrazole-4-carboxamide]
- IC50 (BTK E41K): 7.85 nM
- IC50 (BTK P190K): 2.14 nM
- IC50 (BTK): 3.2 ± 0.6 nM
- IC50 (PLCγ2): 8.2 nM
- IC50 (TMD8 cells): 2.33 nM
- solubility ([1]; aqueous solution, aqueous buffer, between pH 1 to pH 10): 14 to 17 µg/mL
- solubility ([1]; aqueous solution, aqueous buffer, pH 3, actual media pH 3.03): 14 µg/mL
- solubility ([1]; aqueous solution, aqueous buffer, pH 4, actual media pH 4.04): 14 µg/mL
- solubility ([1]; aqueous solution, aqueous buffer, pH 6, actual media pH 6.04): 14 µg/mL
- solubility ([1]; aqueous solution, aqueous buffer, pH 8, actual media pH 8.02): 14 µg/mL
- solubility ([1]; aqueous solution, aqueous buffer, pH 10, actual media pH 9.98): 14 µg/mL
- solubility ([1]; aqueous solution, simulated gastric fluid, pH 1.5, actual media pH 1.49): 15 µg/mL
- solubility ([1]; aqueous solution, simulated gastric fluid, pH 2, actual media pH 2.06): 15 µg/mL
- solubility ([1]; simulated gastric fluid, (0.1 N HCl) pH 1, actual media pH 1.09): 17 µg/mL
- solubility kinetic at 4 h [2, 4]: 22 µg/mL
- solubility kinetic at 24 h [2, 4]: 24 µg/mL
- solubility kinetic at 4 h [2, 5]: 23 µg/mL
- solubility kinetic at 24 h [2, 5]: 20 µg/mL
- solubility kinetic at 4 h [2, 6]: 44 µg/mL
- solubility kinetic at 24 h [2, 6]: 47 µg/mL
- HPLC Solubility ([3]; CAPMUL ® MCM EP, 40 °C): 33.3 mg API per g mixture
- HPLC Solubility ([3]; Capmul PG-8, 25 °C): 30.3 mg API per g mixture
- HPLC Solubility ([3]; Glycerine, 25 °C): 0.5 mg API per g mixture
- HPLC Solubility ([3]; KOLLIPHOR ® EL, 25 °C): 46.2 mg API per g mixture
- HPLC Solubility ([3]; LABRAFIL ® M2125CS, 25 °C): 3.2 mg API per g mixture
- HPLC Solubility ([3]; LABRASOL ® ALF, 25 °C): 104.1 mg API per g mixture
- HPLC Solubility ([3]; LAUROGLYCOL ™ FCC, 25 °C): 5.1 mg API per g mixture
- HPLC Solubility ([3]; Long chain triglycerides/long chain lipid digestion products, 25 °C): 0.02 mg API per g mixture
- HPLC Solubility ([3]; MIGLYOL ® 812, 25 °C): 0.62 mg API per g mixture
- HPLC Solubility ([3]; Medium chain triglycerides/medium chain lipid digestion products, 25 °C): 0.02 mg API per g mixture
- HPLC Solubility ([3]; Oleic acid, 25 °C): 1.2 mg API per g mixture
- HPLC Solubility ([3]; PECEOL ™, 40 °C): 6.6 mg API per g mixture
- HPLC Solubility ([3]; PEG-400 (Macrogol 400), 25 °C): 168.9 mg API per g mixture
- HPLC Solubility ([3]; PHOSAL ® 53 MCT, 25 °C): 11.3 mg API per g mixture
- HPLC Solubility ([3]; Polysorbate 80/Tween-80, 25 °C): 43.6 mg API per g mixture
- HPLC Solubility ([3]; Propylene glycol, 25 °C): 29.4 mg API per g mixture
- HPLC Solubility ([3]; SPAN ® 80, 25 °C): 6.2 mg API per g mixture
- HPLC Solubility ([3]; Sesame oil, 25 °C): 0.07 mg API per g mixture
- HPLC Solubility ([3]; Vitamin E-TPGS NF, 40 °C): 43.1 mg API per g mixture
- excipients in which solubility is best ([3]; excipient screen for lipid-based formulations): best in PEG 400, LABRASOL® ALF (e.g., caprylocaproyl polyoxyl-8 glycerides), KOLLIPHOR® EL (e.g., polyoxyl castor oil), Tween 80, and Vitamin E TPGS; also recorded: most soluble in LABRASOL® ALF and PEG-400
